Data as given in PubChem BioAssay (NCI).
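These data come from cells grown in 96-well plates and exposed to compound for 48 hours at five concentrations. Definition used: TGI = concentration required for complete inhibition of growth.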

Assays:
Experiment in all cases: NCI-60 cell line screen, 48 h
786-0 renal = system: 786-0 renal
A498 renal = system: A498 renal
A549 NSCLC = system: A549 NSCLC
ACHN renal = system: ACHN renal
BT-549 breast = system: BT-549 breast
CAKI-1 renal = system: CAKI-1 renal
CCRF-CEM leukemia = system: CCRF-CEM leukemia
COLO 205 colon = system: COLO 205 colon
DU-145 prostate = system: DU-145 prostate
EKVX NSCLC = system: EKVX NSCLC
HCC-2998 colon = system: HCC-2998 colon
HCT-116 colon = system: HCT-116 colon
HCT-15 colon = system: HCT-15 colon
HL-60(TB) leukemia = system: HL-60(TB) leukemia
HOP-62 NSCLC = system: HOP-62 NSCLC
HOP-92 NSCLC = system: HOP-92 NSCLC
HS 578T breast = system: HS 578T breast
HT29 colon = system: HT29 colon
IGROV1 ovarian = system: IGROV1 ovarian
K-562 leukemia = system: K-562 leukemia
KM12 colon = system: KM12 colon
LOX IMVI melanoma = system: LOX IMVI melanoma
M14 melanoma = system: M14 melanoma
MALME-3M melanoma = system: MALME-3M melanoma
MCF7 breast = system: MCF7 breast
MDA-MB-231 breast = system: MDA-MB-231 breast
MDA-MB-435 = system: MDA-MB-435
MDA-N = system: MDA-N
MOLT-4 leukemia = system: MOLT-4 leukemia
NCI-H226 lung = system: NCI-H226 lung
NCI-H23 lung = system: NCI-H23 lung
NCI-H460 lung = system: NCI-H460 lung
NCI-H522 lung = system: NCI-H522 lung
NCI/ADR-RES ovarian = system: NCI/ADR-RES ovarian
OVCAR-3 ovarian = system: OVCAR-3 ovarian
OVCAR-4 ovarian = system: OVCAR-4 ovarian
OVCAR-5 ovarian = system: OVCAR-5 ovarian
OVCAR-8 ovarian = system: OVCAR-8 ovarian
PC-3 prostate = system: PC-3 prostate
RPMI-8226 leukemia = system: RPMI-8226 leukemia
RXF 393 renal = system: RXF 393 renal
SF-268 CNS = system: SF-268 CNS
SF-295 CNS = system: SF-295 CNS
SF-539 CNS = system: SF-539 CNS
SK-MEL-2 melanoma = system: SK-MEL-2 melanoma
SK-MEL-28 melanoma = system: SK-MEL-28 melanoma
SK-MEL-5 melanoma = system: SK-MEL-5 melanoma
SK-OV-3 ovarian = system: SK-OV-3 ovarian
SN12C renal = system: SN12C renal
SNB-19 CNS = system: SNB-19 CNS
SNB-75 CNS = system: SNB-75 CNS
SR leukemia = system: SR leukemia
SW-620 colon = system: SW-620 colon
T-47D breast = system: T-47D breast
TK-10 renal = system: TK-10 renal
U251 CNS = system: U251 CNS
UACC-257 melanoma = system: UACC-257 melanoma
UACC-62 melanoma = system: UACC-62 melanoma
UO-31 renal = system: UO-31 renal

Measured: TGI

O=S(=O)(O)c1ccc2c(N=Nc3cccc4ccccc34)c(O)c(S(=O)(=O)O)cc2c1
> 100 µM: all assays above
